Legend:
Gst-Rad23 [1] = biological target: T1, Gst-Rad23 (Saccharomyces cerevisiae, UniProt P32628); experiment: Native gel mobility shift of receptor protein; format: binding
T1 construct: made in house
T1 sequence (P32628 1-398): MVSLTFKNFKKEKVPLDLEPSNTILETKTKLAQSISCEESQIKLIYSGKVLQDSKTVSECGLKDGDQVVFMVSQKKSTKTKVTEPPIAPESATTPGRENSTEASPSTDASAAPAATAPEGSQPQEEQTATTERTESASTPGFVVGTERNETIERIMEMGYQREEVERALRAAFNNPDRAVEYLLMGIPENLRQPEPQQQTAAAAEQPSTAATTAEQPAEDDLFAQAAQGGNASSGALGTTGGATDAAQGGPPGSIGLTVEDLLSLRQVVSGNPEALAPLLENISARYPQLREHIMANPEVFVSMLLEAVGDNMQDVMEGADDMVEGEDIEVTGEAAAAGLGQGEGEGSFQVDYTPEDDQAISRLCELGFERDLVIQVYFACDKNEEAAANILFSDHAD
Method: (§1) FIG. 2. […] (A) Degradation of UbSic1. Purified 26S proteasomes were preincubated in the presence or absence of test compounds. UbSic1 was then added, and degradation assayed as described (6). Py mock refers to the pyridine solvent in which C23 was dissolved which was marginally inhibitory, unlike the 50% DMSO vehicle used for other test compounds. (B) Deubiquitination of UbSic1. […] UbSic1 was then added, and deubiquitination was assayed as described (6). (C) Titration curve with varying concentrations of C92 to determine half-maximal inhibition of deubiquitination. (D) C92 inhibits binding of UbSic1 to 26S proteasomes. Purified 26S proteasomes immobilized on anti-Flag beads were incubated with UbSic1 in the presence or absence of C92 as described (6). Following binding, beads were washed and analyzed by immunoblotting with anti-Sic1 polyclonal serum. (E) Binding of UbSic1 to the polyUb binding proteins Rpn10 and Rad23 is inhibited by C92. Recombinant Gst-Rpn10 and Gst-Rad23 (1 μg each) were immobilized on glutathione sepharose beads and then incubated with UbSic1 in the presence or absence of C92. Following binding, beads were washed and analyzed by immunoblotting. (F) C92 interacts with multiUb chains. Equivalent amounts (5 μg) of purified Gst, Gst-fusion protein or multiUb chains were incubated with C92 or C1 before being loaded on a 5% native polyacryamide gel. […]

Gst-Rpn10 = biological target: T2, Gst-Rpn10 (Saccharomyces cerevisiae, UniProt P38886); experiment: Native gel mobility shift of receptor protein; format: binding
T2 construct: made in house
T2 sequence (P38886 1-268): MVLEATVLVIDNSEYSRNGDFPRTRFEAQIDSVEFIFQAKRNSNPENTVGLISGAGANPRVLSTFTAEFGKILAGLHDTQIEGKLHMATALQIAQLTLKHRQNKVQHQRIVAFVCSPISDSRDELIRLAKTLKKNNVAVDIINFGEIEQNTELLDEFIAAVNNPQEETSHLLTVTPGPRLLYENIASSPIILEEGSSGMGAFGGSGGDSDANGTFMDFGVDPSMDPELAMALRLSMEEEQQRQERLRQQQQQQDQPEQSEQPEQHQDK
Method: as §1

Gst-Rad23 [2] = biological target: T1, Gst-Rad23; experiment: Binding of UbSic1 to Gst-Rad23 on glutathione sepharose beads
Method: as §1, with “chains.” for “chains. Equivalent amounts (5 μg) of purified Gst, Gst-fusion protein or multiUb chains were incubated with C92 or C1 before being loaded on a 5% native polyacryamide gel.”
Recombinant Gst-Rpn10 and Gst-Rad23 were immobilized on glutathione sepharose beads. […] Aliquots were analyzed by immunoblotting.

26S proteasomes = system: T3, 26S proteasomes; experiment: Binding of UbSic1 to immobilized 26S proteasomes; design: species or system S. cerevisiae; conditions: 5 μM C92
T3 construct: IC50, deubiquitination of UbSic1; other: titration, epoxomicin-treated proteasomes; other: 5 μM C92
Method: as §1, with “Recombinant Gst-Rpn10 and Gst-Rad23 (1 μg each) were immobilized on glutathione sepharose beads and then incubated with UbSic1 in the presence or absence of C92.” left out, “immunoblotting.” for “immunoblotting. (F) C92 interacts with multiUb chains. Equivalent amounts (5 μg) of purified Gst, Gst-fusion protein or multiUb chains were incubated with C92 or C1 before being loaded on a 5% native polyacryamide gel.”
26S proteasomes were immunoprecipitated with anti-Flag resin from tagged and untagged control strains and incubated with 1 mM phenanthroline, 2.5 uM Ub-aldehyde, and 100 μM MG132 at 4° C. for 45 min. […] Washed beads were resuspended in 2×SDS sample buffer and aliquots analyzed by immunoblotting with anti-Sic1.

O=C(Nc1ccc(/C=C/c2ccc(NC(=O)c3cc(S(=O)(=O)O)c4cccnc4c3O)cc2S(=O)(=O)O)c(S(=O)(=O)O)c1)c1cc(S(=O)(=O)O)c2cccnc2c1O [Compound 92]
native gel mobility of Gst-Rad23 (Gst-Rad23 [1]): not Gst-Rpn10 or Gst-Rad23, was altered
native gel mobility of Gst-Rpn10 (Gst-Rpn10): not Gst-Rpn10 or Gst-Rad23, was altered
inhibition of binding of UbSic1 to Rad23 (Gst-Rad23 [2]): abolished binding
inhibition of binding of UbSic1 to 26S proteasomes (26S proteasomes): strongly inhibited binding

Reference: patent US20050203063A1, “Proteasome pathway inhibitors and related methods” (priority 2003, published 2005)
